Consider four compounds from patent publication US4745185A, “D-arabinose-1,5-diphosphate salts and methods for the treatment of diabetes” (McNeilab, Inc., priority 1985, dated 1988).

In experiment [1] the test system is 6-phosphofructo-1-kinase. The note with it: cited from earlier work.
Another experiment deals with blood glucose. In words: Epinephrine-Induced Hyperglycemic Model (EIHM), in vivo. Also on record: species or system male Sprague-Dawley rats. Conditions: for maximum % lowering (blood glucose): 100 mg/kg i.p., given 30 minutes prior to epinephrine (0.2 mg/kg i.p.), fasted rats, glucose at 45 and 90 minutes. The text has this: (§1) The utility of compounds of the invention of formula (I) as hypoglycemic agents may be determined by measurement of Ki values as competitive inhibitors of rat liver fructose-1,6-biphosphatase and by measurement of half-maximal concentrations as allosteric activators of rat liver 6-phosphofructo-1-kinase, both of these tests being in vitro. An in vivo test for the activity of compounds of the invention is the Epinephrine-Induced Hyperglycemic Model (EIHM). In the EIHM, male Sprague-Dawley rats from Charles River Laboratories, average weight 200-280 grams, maintained on Lab-Blox® rat chow (Wayne) and provided water ad libitum were used throughout all studies; rats were fasted 18-24 hours prior to treatment with epinephrine (0.2 mg/kg i.p.) which was given intraperitoneally. Drug or vehicle were given 30 minutes prior to epinephrine. Blood samples were taken from the tail vein for measurement of glucose changes prior to and at 45 and 90 minutes after administration of epinephrine bitartrate (Sigma Co., St. Louis, MO). Blood glucose was determined using Autoflo Glucose (Bio-Dyanamics/bmc, Indianapolis, IN).
**reported as maximum % lowering; methodology as described by G. F. Tutwiler in Biochemical Medicine, Vol. 22, pp. 204 (1979).

For experiment [2], the system named is fructose-1,6-biphosphatase. The note with it: cited from earlier work.
In experiment [3] the target is T1, 6-phosphofructo-1-kinase (Rattus norvegicus, UniProt P30835).
T1 construct: from tissue; host or cells: rat liver
T1 sequence (P30835 2-780 limits assumed): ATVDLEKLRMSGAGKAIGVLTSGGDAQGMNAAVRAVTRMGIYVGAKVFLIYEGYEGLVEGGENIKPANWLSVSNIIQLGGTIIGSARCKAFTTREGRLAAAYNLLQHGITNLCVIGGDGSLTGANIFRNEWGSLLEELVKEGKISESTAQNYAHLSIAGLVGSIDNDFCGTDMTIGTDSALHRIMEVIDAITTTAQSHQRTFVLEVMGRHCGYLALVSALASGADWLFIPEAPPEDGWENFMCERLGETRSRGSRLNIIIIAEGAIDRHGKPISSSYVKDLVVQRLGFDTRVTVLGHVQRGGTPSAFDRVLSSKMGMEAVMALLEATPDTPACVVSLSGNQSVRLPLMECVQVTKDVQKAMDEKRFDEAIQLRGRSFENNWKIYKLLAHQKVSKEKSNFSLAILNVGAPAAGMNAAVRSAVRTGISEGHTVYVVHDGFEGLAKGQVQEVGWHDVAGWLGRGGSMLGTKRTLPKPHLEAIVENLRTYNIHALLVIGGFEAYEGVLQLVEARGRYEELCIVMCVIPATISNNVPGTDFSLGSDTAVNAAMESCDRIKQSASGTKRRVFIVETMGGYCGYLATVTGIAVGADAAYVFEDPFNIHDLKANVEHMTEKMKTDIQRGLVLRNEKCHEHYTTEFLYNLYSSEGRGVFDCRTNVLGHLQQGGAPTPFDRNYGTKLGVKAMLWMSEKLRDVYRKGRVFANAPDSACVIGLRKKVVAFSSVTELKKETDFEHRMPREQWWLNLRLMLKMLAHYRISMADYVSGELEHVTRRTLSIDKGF
In words: Allosteric activation of rat liver 6-phosphofructo-1-kinase. The class given is biochemical. The note with it: rat liver enzyme, in vitro; read-out: half-maximal concentration, allosteric activation.
From the text: as §1
2. Allosteric activation of rat liver 6-phosphofructo-1-kinase
reported as half-maximal concentrations; methodology as described by S. J. Pilkis, et al. in The Journal of Biol. Chem., Vol. 256, pp. 3171 (1981).

Experiment [4] addresses T2, fructose-1,6-biphosphatase (Rattus norvegicus, UniProt P19112).
T2 construct: from tissue; host or cells: rat liver
T2 sequence (P19112 2-363 limits assumed): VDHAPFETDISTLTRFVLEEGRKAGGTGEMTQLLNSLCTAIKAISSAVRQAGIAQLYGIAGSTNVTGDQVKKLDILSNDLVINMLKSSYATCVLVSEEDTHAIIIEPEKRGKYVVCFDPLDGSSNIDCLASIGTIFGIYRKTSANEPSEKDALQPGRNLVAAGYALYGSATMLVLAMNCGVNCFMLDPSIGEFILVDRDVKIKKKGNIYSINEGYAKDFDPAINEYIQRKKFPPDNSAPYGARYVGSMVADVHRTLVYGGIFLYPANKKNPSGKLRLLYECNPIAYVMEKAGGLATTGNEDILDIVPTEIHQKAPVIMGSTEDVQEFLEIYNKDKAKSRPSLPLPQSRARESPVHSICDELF
In words: Rat liver fructose-1,6-biphosphatase inhibition. It counts as biochemical. The note with it: competitive inhibitors; rat liver enzyme, in vitro.
From the text: as §1
1. Rat liver fructose-1,6-biphosphatase inhibition*:
*Methodology as described by S. J. Benkovic, et al. in Biochemistry, Vol. 10, No. 26, pp. 4881-4887 (1971).

Usually Ki stands for a dissociation constant, usually derived from enzyme kinetics or from competition with a known ligand. In the case of `O=P(O)(O)OC[C@H]1O[C@@](CO)(OP(=O)(O)O)[C@@H](O)[C@@H]1O` [Compound (A), β-D-fructose-2,6-diphosphate, reference compound], the “stimulation of 6-phosphofructo-1-kinase (in words)” value in the experiment on 6-phosphofructo-1-kinase [1] was “activates glycolysis by stimulating 6-phosphofructo-1-kinase”. Also, the “maximum % lowering (blood glucose)” value with blood glucose is reported as 0%. For the same compound, the “inhibition of fructose-1,6-biphosphatase (in words)” value in experiment [2] is recorded as “deactivates gluconeogenesis by inhibiting fructose-1,6-biphosphatase”. Further, the EC50 at 6-phosphofructo-1-kinase [3] stood at 50 nM. This compound displayed a Ki in experiment [4] of 100 to 200 nM.

As to `NC1CCCCC1` [cyclohexylamine], the “part of the drug effect due to the cyclohexylamine base” value in the experiment on blood glucose (cyclohexylamine base used to crystallize Example 1d, Example 1d at 100 mg/kg i.p.) was “approximately one-half of the drug effect”.

For the compound `O=P(O)(O)OC[C@H]1O[C@@H](OP(=O)(O)O)[C@@H](O)[C@@H]1O` [Example 1d, β-D-Arabinose-1,5-diphosphate], the “maximum % lowering (blood glucose)” value in the experiment on blood glucose came out at 85%. At 6-phosphofructo-1-kinase [3], the EC50 worked out at 1000 nM. In experiment [4], this compound had an inhibition constant Ki of 3400 nM.

Consider `O=P(O)(O)OC[C@H]1O[C@H](OP(=O)(O)O)[C@@H](O)[C@@H]1O` [Example 2b, α-D-Arabinose-1,5-diphosphate], for which, on 6-phosphofructo-1-kinase [3], the EC50 was 500 nM. In experiment [4], this compound registered a Ki of 30000 to 40000 nM.
